Source: patent EP2242752B1, “[…] IMIDAZOLES AS HEPATITIS C VIRUS INHIBITORS” (Bristol-Myers Squibb Company, priority 2008, dated 2009)

System: HCV 1b genotype
Test: HCV Replicon assay (HCV 16-377-neo replicon cells)
Format: cell-based
Conditions: Hepatitis C virus; HCV 1b genotype replicon cells; read-out: EC50 ranges against HCV 1b
Procedure: An HCV Replion assay was utilized in the present disclosure, and was prepared, conducted and validated as described in commonly owned PCT/US2006/022197 and in O'Boyle et. al. Antimicrob Agents Chemother. 2005 Apr;49(4): 1346-53.
HCV 16-377-neo replicon cells were used to test the currently described compound series as well as cells resistant to compound A due to a Y2065H mutation in NS5A (described in application PCT/US2006/022197). The compounds tested were determined to have more than 10-fold less inhibitory activity on cells resistant to compound A than wild-type cells indicating a related mechanism of action between the two compound series. Thus, the compounds of the present disclosure can be effective to inhibit the function of the HCV NS5A protein and are understood to be as effective in combinations as previously described in application PCT/US2006/022197 and commonly owned WO/O4014852. Further, the compounds of the present disclosure can be effective against the HCV 1b genotype. It should also be understood that the compounds of the present disclosure can inhibit multiple genotypes of HCV. […] In one embodiment compounds of the present disclosure are active against the 1a, 1b, 2a, 2b, 3a, 4a, and 5a genotypes.

| SMILES | EC50 |
| --- | --- |
| Cc1[nH]c([C@@H]2CCCN2C(=O)[C@@H](c2ccccc2)N(C)C)nc1-c1ccc(-c2ccc(-c3c[nH]c([C@@H]4CCCN4C(=O)[C@@H](c4ccccc4)N(C)C)n3)cc2)cc1 [Example E5, (1R)-2-((2S)-2-(4-(4'-(2-((2S)-1-((2R)-2-(dimethylamino)-2-phenylacetyl)-2-pyrrolidinyl)-1H-imidazol-4-yl)-4-biphenylyl)-5-methyl-1 H-imidazol-2-yl)-1-pyrrolidinyl)-N,N-dimethyl-2-oxo-1-phenylethanamine] | 1 to 999 pM |
| COC(=O)N[C@@H](C(=O)N1CCC[C@H]1c1nc(C)c(-c2ccc(-c3ccc(-c4[nH]c([C@@H]5CCCN5C(=O)[C@H](NC(=O)OC)c5ccccc5)nc4C)cc3)cc2)[nH]1)c1ccccc1 [Example E5j, dimethyl (4,4'-biphenyldiylbis((4-methyl-1H-imidazole-5,2-diyl)(2S)-2,1-pyrrolidinediyl((1R )-2-oxo-1-phenyl-2,1-ethanediyl)))biscarb amate] | 1 to 999 pM |
| COC(=O)N[C@H](C(=O)N1CCC[C@H]1c1nc(-c2ccc(-c3ccc(-c4nc([C@@H]5CCCN5C(=O)[C@@H](NC(=O)OC)[C@@H](C)OC)[nH]c4C)cc3)cc2)c(C)[nH]1)[C@@H](C)OC [Example E5m, methyl ((1S,2R)-2-methoxy-1-(((2S)-2-(4-(4'-(2-((2S)-1-(N-(methoxycarbonyl)-O-methyl-L-threonyl)-2-pyrrolidinyl)-5-methyl-1H-imidazol-4-yl)-4-biphenylyl)-5-methyl-1H-imidazol-2-yl)-1-pyrrolidinyl)carbonyl)propyl)carbamate] | 1 to 999 pM |
| CCN(CC)[C@@H](C(=O)N1CC(F)(F)C[C@H]1c1nc(-c2ccc(-c3ccc(-c4c[nH]c([C@@H]5CCCN5C(=O)[C@@H](c5ccccc5)N(CC)CC)n4)c(F)c3)cc2)c[nH]1)c1ccccc1 [Example J14e.1, (1R)-2-((2S)-2-(4-(4'-(2-((2S)-1-((2R)-2-(diethylamino)-2-phenylacetyl)-4,4-difluoro-2-pyrrolidinyl)-1H-imidazol-4-yl)-3-fluoro-4-biphenylyl)-1H-imidazol-2-yl)-1-pyrrolidinyl)-N,N-diethyl-2-oxo-1-phenylethanamine] | 1 to 999 pM |
| COC(=O)N[C@@H](C)C(=O)N1[C@@H]2C[C@@H]2C[C@H]1c1ncc(-c2ccc(-c3ccc(-c4cnc([C@@H]5C[C@H]6C[C@H]6N5C(=O)[C@H](C)NC(=O)OC)[nH]4)cc3)cc2)[nH]1 [Example M132, methyl ((1S)-2-((1R,3S,5R)-3-(4-(4'-(2-((1R,3S,SR)-2-(N(methoxycarbonyl)-L-alanyl)-2-azabicyclo[3.1.0]hex-3-yl)-1H-imidazol-4-yl)-4-biphenyl)-1H-imidazol-2-yl)-2-azabicyclo[3.1.0]hex-2-yl)-1-methyl-2-oxoethyl)carbamate] | 1 to 999 pM |
| C[C@H]1CC[C@@H](c2nc(-c3ccc(-c4ccc(-c5c[nH]c([C@@H]6CC[C@H](C)N6C(=O)Cc6ccccc6)n5)cc4)cc3)c[nH]2)N1C(=O)Cc1ccccc1 [Example M159, 4,4'-(4,4'-biphenyldiyl)bis(2-((2S,5S)-5-methyl-1-(phenylacetyl)-2-pyrrolidinyl)-1H-imidazole)] | 1 to 999 pM |
| COC(=O)N[C@@H](C)C(=O)N1CCC[C@H]1c1nc(-c2ccc(-c3ccc(-c4[nH]c([C@@H]5CCCN5C(=O)[C@H](C)NC(=O)OC)nc4C)cc3)cc2)c[nH]1 [Example E5d, methyl ((1S)-2-((2S)-2-(4-(4'-(2-((2S)-1-(N-(methoxycarbonyl)-L-alanyl)-2-pyrrolidinyl)-4-methyl-1H-imidazol-5-yl)-4-biphenylyl)-1H-imidazol-2-yl)-1-pyrrolidinyl)-1-methyl-2-oxoethyl)carbamate] | 1 to 999 pM |
| COC(=O)N[C@H](C(=O)N1[C@@H](C)CC[C@H]1c1nc(-c2ccc(-c3ccc(-c4c[nH]c([C@@H]5CC[C@H](C)N5C(=O)[C@@H](NC(=O)OC)C(C)C)n4)cc3)cc2)c[nH]1)C(C)C [Example M151, methyl ((1S)-1-(((2S,5S)-2-(4-(4'-(2-((2S,5S)-1-((2S)-2-((methoxycarbonyl)amino)-3-methylbutanoyl)-5-methyl-2-pyrrolidinyl)-1H-imidazol-4-yl)-4-biphenylyl)-1H-imidazol-2-yl)-5-methyl-1-pyrrolidinyl)carbonyl)-2-methylpropyl)carbamate] | 1 to 999 pM |
| COC(=O)N[C@@H](C)C(=O)N1CCC[C@H]1c1nc(-c2ccc(-c3ccc(-c4nc([C@@H]5CCCN5C(=O)[C@H](C)NC(=O)OC)[nH]c4C)cc3)cc2)c(C)[nH]1 [Example E5k, methyl ((1S)-2-((2S)-2-(4-(4'-(2-((2S)-1-(N-(methoxycarbonyl)-L-alanyl)-2-pyrrolidinyl)-5-methyl-1H-imidazol-4-yl)-4-biphenylyl)-5-methyl-1H-imidazol-2-yl)-1-pyrrolidinyl)-1-methyl-2-oxoethyl)carbamate] | 1 to 999 pM |
| CC(C)[C@H](N)C(=O)N1[C@@H]2C[C@@H]2C[C@H]1c1nc(-c2ccc(-c3ccc(-c4cnc([C@@H]5C[C@H]6C[C@H]6N5C(=O)[C@@H](N)C(C)C)[nH]4)cc3)cc2)c[nH]1 [Example M140a-i, (2S)-1-((1R,3S,5R)-3-(4-(4'-(2-((1R,3S,5R)-2-((2S)-2-amino-3-methylbutanoyl)-2-azabicyclo[3.1.0]hex-3-yl)-1H-imidazol-5-yl)-4-biphenylyl)-1H-imidazol-2-yl)-2-azabicyclo[3.1.0]hex-2-yl)-3-methyl-1-oxo-2-butanamine] | 1000 to 99000 pM |
| CCCc1nc([C@@H]2CCCN2C(=O)[C@H](C)NC(=O)OC)[nH]c1-c1ccc(-c2ccc(-c3c[nH]c([C@@H]4CCCN4C(=O)[C@H](C)NC(=O)OC)n3)cc2)cc1 [Example J14c, methyl ((1S)-2-((2S)-2-(4-(4'-(2-((2S)-1-(N-(methoxycarbonyl)-L-alanyl)-2-pyrrolidinyl)-4-propyl-1H-imidazol-5-yl)-4-biphenylyl)-1H-imidazol-2-yl)-1-pyrrolidinyl)-1-methyl-2-oxoethyl)carbamate] | 1 to 999 pM |
| COC(=O)Cc1[nH]c([C@@H]2CCCN2C(=O)[C@@H](NC(=O)OC)[C@@H](C)OC)nc1-c1ccc(-c2ccc(-c3c[nH]c([C@@H]4CCCN4C(=O)[C@@H](NC(=O)OC)[C@@H](C)OC)n3)cc2)cc1 [Example J14b, methyl (2-((2S)-1-(N-(methoxycarbonyl)-O-methyl-L-threonyl)-2-pyrrolidinyl)-4-(4'-(2-((2S)-1-(N-(methoxycarbonyl)-O-methyl-L-threonyl)-2-pyrrolidinyl)-1H-imidazol-4-yl)4-biphenylyl)-1H-imidazol-5-yl)acetate] | 1 to 999 pM |
| CC(C)CC(=O)N1[C@@H](C)CC[C@H]1c1nc(-c2ccc(-c3ccc(-c4c[nH]c([C@@H]5CC[C@H](C)N5C(=O)CC(C)C)n4)cc3)cc2)c[nH]1 [Example M158, 4,4'-(4,4'-biphenyldiyl)bis(2-((2S,5S)-5-methyl-1-(3-methylbutanoyl)-2-pyrrolidinyl)-1H-imidazole)] | 1000 to 99000 pM |
| COC(=O)Cc1[nH]c([C@@H]2CCCN2C(=O)[C@@H](NC(=O)OC)C(C)C)nc1-c1ccc(-c2ccc(-c3c[nH]c([C@@H]4CCCN4C(=O)[C@@H](NC(=O)OC)C(C)C)n3)cc2)cc1 [Example J14b.1, methyl (2-((2S)-1-(N-(methoxycarbonyl)-L-valyl)-2-pyrrolidinyl)-4-(4'-(2-((2S)-1-(N-(methoxycarbonyl)-L-valyl)-2-pyrrolidinyl)-1H-imidazol-4-yl)-4-biphenylyl)-1H-imidazol-5-yl)acetate] | 1 to 999 pM |
| COC(=O)N[C@@H](C)C(=O)N1CC2(CC2)C[C@H]1c1nc(-c2ccc(-c3ccc(-c4c[nH]c([C@@H]5CC6(CC6)CN5C(=O)[C@H](C)NC(=O)OC)n4)cc3)cc2)c[nH]1 [Example M147, methyl ((1S)-2-((6S)-6-(4-(4'-(2-((6S)-5-(N-(methoxycarbonyl)-L-alanyl)-5-azaspiro[2.4]hept-6-yl)-1H-imidazol-4-yl)-4-biphenylyl)-1H-imidazol-2-yl)-5-azaspiro[2.4]hept-5-yl)-1-methyl-2-oxoethyl)carbam ate] | 1 to 999 pM |
| CC(C)[C@H](N)C(=O)N1[C@@H]2C[C@@H]2C[C@H]1c1ncc(-c2ccc(-c3ccc(-c4cnc([C@@H]5C[C@H]6C[C@H]6N5C(=O)[C@@H](N)C(C)C)[nH]4)cc3)cc2)[nH]1 [Example M140a-ii] | 1000 to 99000 pM |
| CC(=O)N1[C@@H](C)CC[C@H]1c1nc(-c2ccc(-c3ccc(-c4cnc([C@@H]5CC[C@H](C)N5C(C)=O)[nH]4)cc3)cc2)c[nH]1 [Example M162, 2-((2S,5S)-1-acetyl-5-methyl-2-pyrrolidinyl)-4-(4'-(2-((2S,5S)-1-acetyl-5-methyl-2-pyrrolidinyl)-1H-imidazol-5-yl)-4-biphenylyl)-1H-imidazole] | 1000 to 99000 pM |
| COC(=O)N[C@@H](C)C(=O)N1[C@@H](C)CC[C@H]1c1nc(-c2ccc(-c3ccc(-c4c[nH]c([C@@H]5CC[C@H](C)N5C(=O)[C@H](C)NC(=O)OC)n4)cc3)cc2)c[nH]1 [Example M157, methyl ((1S)-2-((2S,5S)-2-(4-(4'-(2-((2S,5S)-1-(N-(methoxycarbonyl)-L-alanyl)-5-methyl-2-pyrrolidinyl)-1H-imidazol-4-yl)-4-biphenylyl)-1H-imidazol-2-yl)-5-methyl-1-pyrrolidinyl)-1-methyl-2-oxoethyl)carbamate] | 1 to 999 pM |
